From US10711027B2, “DNA polymerase beta inhibitors” (The Johns Hopkins University, priority 2016, dated 2020)
Several values for one entry are separate records, joined by “and”; a condition that tells them apart may be missing. Equal values may be shown once. Entries after “also recorded” stand apart in the source; their conditions may differ.

Tests used:
[1] = target: Ape1 (Homo sapiens, UniProt P27695); assay: Ape1 activity on a duplex containing AP; type: biochemical
[2] = tested on: HeLa cells; assay: Clonogenic assay for cell survival; type: cell-based, human; conditions: for cell death, individual treatment: pro-13 5 μM, pro-1 5 μM, MMS 0.1 mM; for enhancement (potentiation) of MMS cytotoxicity: compared to individual agents
Method: HeLa (human cervical carcinoma) cells were maintained in Dulbecco's Modified Eagle's Medium (DMEM), supplemented with 10% fetal bovine serum (FBS), 100 U mL^−1 of penicillin and 100 μg mL^−1 of streptomycin at 37° C. in a humidified incubator at 5% CO2. […] At 90% confluency, there are around 1.5×10^7 cells in one dish of 150 mm×25 mm. Cell viability assay. […] After the indicated time, the medium was removed from the cell culture by aspiration, and washed once with PBS. A stock solution of bleomycin sulphate (1 mM) in DMSO was diluted in the culture medium to 2 μM and then added to the plates keeping the quantity of DMSO constant at 1% for all tests. Cells were then incubated for 2 h at 37° C. in a CO2 incubator. The medium was then subsequently replaced with fresh DMEM-FBS and incubation was continued for an additional 1 or 2 h at 37° C. in a CO2 incubator. […] A portion (10 μL) of the cell suspension was thoroughly mixed with 10 μL of 0.4% solution of trypan blue in PBS (pH 7.2 to 7.3), and placed on a counting slide (BIO-RAD) to count the % of live cells using a TC20 automated cell counter (BIO-RAD). A control experiment without treating with bleomycin sulphate was carried out in parallel. All the experiments were carried out at least 3 times, and each experiment consisted of 3 replicates.
After overnight incubation at 37° C. in a humidified atmosphere of 5% CO2, cells were subjected to the appropriate DNA damaging conditions (or controls). For alkylation experiments, cells were incubated with MMS (0, 0.1, or 0.2 mM), with or without pro-13 (5 μM) for 1 or 2 h. For experiments involving recovery after MMS treatment, the medium containing MMS and/or pro-13 was replaced after 2 h with fresh medium with or without pro-13 (5 μM) and incubation continued for 2-8 h. For BLM experiments, cells were incubated with BLM (2 μM), with or without pro-13 (5 μM) for 2 h, at which time the medium was replaced with fresh medium containing only pro-13 (5 μM) and incubation was continued for 2 h. The growth medium was then removed from each well and the cells were washed with PBS (2×1 mL). […] The single cell suspensions were collected in 1.6 mL tubes and counted using a Bio-Rad TC20 Automated Cell Counter. Stock solutions of single cell suspensions were made in two groups for each concentration with 500 cells/mL (for untreated control) and 1500 cells/mL (for treated cells), respectively. These cells were seeded in 6 well plates (well size; 35 mm×18 mm) in 2 mL of 10% DMEM-FBS. The plates were incubated in humidified atmosphere with 5% CO2 for 7 days. After 7 days, the growth medium was discarded and the attached cells were treated with 0.2% w/v crystal violet solution. The excess dye was washed with water and the colonies were counted under a stereomicroscope. Plating efficiencies (PE) and survival fractions (SF) were calculated as follows: PE=number of colonies[…]number of cells seeded; SF=PE[…]PE (control).

[3] = tested on: HeLa cells; assay: AP/dRP site accumulation in genomic DNA (aldehyde reactive probe); type: cell-based, human
Source text: Evidence that pro-13 leads to BER inhibition in HeLa cells was obtained by determining its effect on the level of aldehyde reactive probe (ARP) sites (Table 1). ARP is routinely used to quantify AP sites in DNA, and has been employed to validate Ape1 inhibition, but dRP detection via this method was not known. Rai et al., 2012; Dorjsuren et al., 2012; Ide et al., 1993; Asaeda et al., 1998. […] Inhibition of Pol β (and/or Pol λ) should lead to a build-up of dRP sites instead of AP, which would be indistinguishable from AP using ARP (Scheme 11). […] The level of AP/dRP sites in the genomic DNA isolated from HeLa cells treated with MMS, pro-13 or a combination, was subsequently measured. Following treatment with the DNA damaging agent (1 h), the medium was replaced with fresh medium with or without pro-13 (5 μM), and the cells were incubated an additional 23 h. The level of ARP reactive sites increased approximately 3-fold when cells were treated with a combination of MMS and pro-13 compared to just the alkylating agent (Table 1), consistent with the inhibition of BER in cells treated with the proinhibitor.
HeLa cells (approximately 1×10^7) were plated in 150 mm×25 mm dishes and treated with DMSO (1% final concentration), MMS (0.3 or 0.4 mM), or pro-13 (5 μM) alone or with a combination of MMS (0.3 or 0.4 mM), and pro-13 (5 μM) for 1 h at 37° C. The cellular medium was then replaced with fresh DMEM-FBS and incubation was continued for 23 h at 37° C. in a CO2 incubator in the absence or presence of pro-13 (5 μM). Cells were then harvested with 0.25% Trypsin-EDTA, and the genomic DNA of each sample was isolated according to Dojindo Genomic DNA isolation kit (www.dojindo.com/TechnicalManual/Manual_GKO3.pdf). The concentration of genomic DNA was measured at 260 nm and adjusted to 100 ng/μL. An aliquot of purified DNA (1 μg) was labeled with 10 μL of aldehyde reactive probe (ARP) reagent (N′-aminooxymethylcarbonylhydrazino-D-biotin), and AP/dRP sites were determined using the DNA damage quantification kit from Dojindo Molecular Technologies (DK02-12) by measuring the absorbance at 650 nm using an ELISA microplate reader (BioRad).

[4] = tested on: HeLa cells; assay: Comet assay to visualize DNA damage; type: cell-based, human; conditions: BLM 2 μM 2 h
Method: Bleomycin sulphate treatment of HeLa cells was carried out exactly in the same way as described above. The only difference was that approximately […] HeLa cells were plated in each well of the 6 wells culture plate. After the required incubation steps, the medium was aspirated from the cell culture, and washed with PBS (3×) by adding 5 mL of PBS to each well, scratching with a cell scraper (3 cm blade) and transferring the cells to a 15 mL Falcon tube. Cells were pelleted by centrifuging at 3000 g for 10 min at room temperature. Cells were resuspended in PBS and pelleted again. For the comet assay, cells were suspended in 2 mL PBS/well and counted (generally approximately 1×10^7/mL). An aliquot (10 μL) of the cell suspension was diluted to 1×10^5 cells/mL using PBS and used in an Oxiselect™ Comet Assay Kit (Cell Biolabs, INC. Catalog number STA-350) according to the product manual (www.cellbiolabs.com/sites/default/files/STA-350-comet-assay-kit.pdf). In brief, cell samples were combined with Comet Agarose at 1:10 ratio (v/v), titrurated with a pipette to mix, and immediately pipette 75 μL/well onto the OxiSelect™ Comet Slide. […] View slides by a fluorescence microscopy using a FITC filter. […] The relative tail lengths were determined with Open Comet software.

Chain of Ape1 (P27695 whole entry): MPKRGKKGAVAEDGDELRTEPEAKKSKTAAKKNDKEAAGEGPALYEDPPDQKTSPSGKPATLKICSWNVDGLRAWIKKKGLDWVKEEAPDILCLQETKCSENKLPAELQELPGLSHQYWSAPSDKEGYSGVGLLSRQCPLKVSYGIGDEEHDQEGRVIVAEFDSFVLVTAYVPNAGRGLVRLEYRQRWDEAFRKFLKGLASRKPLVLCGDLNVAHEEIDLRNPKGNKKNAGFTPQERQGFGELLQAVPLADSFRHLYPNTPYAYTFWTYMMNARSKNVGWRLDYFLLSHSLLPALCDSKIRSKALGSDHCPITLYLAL

COc1cc(Cl)c(/C=N/OC2C[C@H](n3cc(CNC(=O)c4cc5c(O)cccc5cc4O)c(=O)[nH]c3=O)O[C@@H]2COP(=O)(O)OCC2C[C@H](O)O[C@@H]2O)c(Cl)c1O (stereo partly drawn) [Compound 13]
effect on Ape1 activity [1]: does not affect

COS(C)(=O)=O [MMS, methyl methanesulfonate, reference compound]
cell death, individual treatment ([2]; 2 h): 15%
cells survived ([2]; MMS 0.2 mM without proinhibitor, 2 h): 25%
AP/dRP sites/10^5 bp ([3]; HeLa, MMS 0.3 mM, no pro-13): 9.2 ± 1.2 sites/10^5 bp
AP/dRP sites/10^5 bp ([3]; HeLa, MMS 0.4 mM, no pro-13): 11.0 ± 1.5 sites/10^5 bp

COc1cc(Cl)c(/C=N/OC2C[C@H](n3cc(CNC(=O)c4cc5c(O)cccc5cc4O)c(=O)[nH]c3=O)O[C@@H]2COP(=O)(O)OCC2C[C@H](OC(C)=O)O[C@@H]2OC(C)=O)c(Cl)c1O (stereo partly drawn) [pro-13]
cytotoxicity of proinhibitor alone ([2]; 5 μM): modest cytotoxic effects
cell death ([2]; 5 μM alone, 1 h): 2%
cells survive ([2]; 5 μM alone, 2 h): 93%
synergism with MMS ([2]; 5 μM, MMS 0.1 or 0.2 mM, 1 or 2 h): synergistic effects
cytotoxicity of proinhibitor alone ([2]; 5 μM, listed as Pro-13): only slightly cytotoxic; also recorded: only weakly cytotoxic
cell death, individual treatment ([2]; 2 h): 7%
fraction cell survival relative to cells incubated in absence of pro-13 ([2]; MMS 0.1 mM + pro-13 2 h, then 4 h additional incubation with pro-13 5 μM): 1/7
cells survive ([2]; MMS 0.1 mM + pro-13 2 h, then 8 h additional incubation with pro-13 5 μM): 0.20±0.02% and 0.2%
decrease in fraction cell survival ([2]; pro-13 5 μM + BLM 2 μM vs BLM alone): more than 2 fold
fraction survival ([2]; pro-13 5 μM + MMS 0.1 mM, 2 h): 0.23 and 0.21±0.04
fraction survival lower than expected from agents used separately ([2]; pro-13 5 μM + MMS 0.1 mM, 2 h): approximately 3.4 fold
enhancement (potentiation) of MMS cytotoxicity ([2]; pro-13 5 μM + MMS 0.2 mM): ~13 fold
enhancement (potentiation) of MMS cytotoxicity ([2]; pro-13 5 μM + MMS 0.2 mM, listed as Pro-13): approximately 13 fold
cells survived ([2]; pro-13 5 μM + MMS 0.2 mM, longer reaction time (2 h)): < 2%
cells survive ([2]; pro-13 5 μM co-incubated with BLM 2 μM): 43%
abasic site repair ([3]; HeLa cells): inhibited
AP/dRP sites/10^5 bp ([3]; HeLa, MMS 0.3 mM + pro-13 5 μM): 28.0 ± 1.4 sites/10^5 bp
AP/dRP sites/10^5 bp ([3]; HeLa, MMS 0.4 mM + pro-13 5 μM): 33.0 ± 1.5 sites/10^5 bp
increase in ARP reactive (abasic) sites vs MMS alone ([3]; HeLa, MMS + pro-13 5 μM): approximately 3 fold
AP/dRP sites/10^5 bp ([3]; HeLa, pro-13 5 μM, no MMS): 4.6 ± 1.0 sites/10^5 bp

bleomycin [BLM]
cell death ([2]; BLM 2 μM alone 2 h, 2 h recovery): No observable cell death
DNA damage (tail length) [4]: confirms DNA damage; also recorded: increase in the tail length
